What was measured:
[1] = test system: Escherichia coli K-12 (MG1655); assay type: cell-based; conditions: for repression of antimicrobial activity by human serum: E. coli 10^6 cfu/ml, 5% human serum (v/v) compared with PBS, mean ± SD n = 3
Experimental: The Gram-negative bacteria Escherichia coli K-12 (MG1655) was cultured and plated in/on Luria–Bertani broth/agar plate (Merck Millipore, Darmstadt, Germany). The bacteria were grown overnight, washed, and diluted 1:2000 in phosphate buffered saline (PBS), pH 7.4. Bacteria (ca. 1 × 10^6 colony-forming units, cfu/ml) was mixed with antimicrobial peptides (AMP) in 100 µl PBS and incubated at 37 °C. Serial dilutions of each AMP-treated bacteria in the presence of human sera, proteins or lipids were prepared and plated for determination of remaining viable cells (expressed as cfu). At least three independent experiments were performed for each assay to determine the mean value with standard deviation (SD)[31].
For all in vitro antimicrobial assays, the average value with standard deviation (SD) was determined from at least three independent experiments. Mann–Whitney test and Kruskal–Wallis tests were performed to determine the significance. For lipid quantification, the average value with standard deviation (SD) was determined from at least three independent experiments and One-way ANOVA test was performed to determine the significance of the difference in the measured values. P < 0.05 was considered to be statistically significant.

human albumin = conditions: cited from earlier work
HDL = test: Band shift of AMPs by HDL on horizontal native PAGE; assay type: binding, human; conditions: AMP 4 µg, agents 10 µg or lipids 4 µg in BSA, 8% horizontal native PAGE
Experimental: (§1) Various AMPs (4 µg each) were incubated with human serum, isolated components or lipid at the indicated concentrations at room temperature in 10 µl PC buffer (20 mM HEPES, pH7.4, 50 mM NaCl) for 30 min, subjected to horizontal native 8% polyacrylamide gel electrophoreses (PAGE), pH8.0/pH8.8, and stained with Coomassie Blue.

human serum = test: Band shift of AMPs in human serum on horizontal native PAGE; assay type: binding; conditions: AMP 4 µg in 10 µl diluted human serum, 5–40% (v/v), 8% horizontal native PAGE, Coomassie blue
Experimental: as §1

## CC[C@H](C)[C@H](NC(=O)[C@H](CCCCN)NC(=O)[C@H](CCC(=O)O)NC(=O)[C@H](CCCCN)NC(=O)[C@H](CO)NC(=O)[C@H](CCCCN)NC(=O)[C@H](CCCNC(=N)N)NC(=O)[C@H](Cc1ccccc1)NC(=O)[C@H](Cc1ccccc1)NC(=O)[C@H](CC(=O)O)NC(=O)CNC(=O)[C@H](CC(C)C)NC(=O)[C@@H](N)CC(C)C)C(=O)NCC(=O)N[C@@H](CCCCN)C(=O)N[C@@H](CCC(=O)O)C(=O)N[C@@H](Cc1ccccc1)C(=O)N[C@@H](CCCCN)C(=O)N[C@@H](CCCNC(=N)N)C(=O)N[C@H](C(=O)N[C@H](C(=O)N[C@@H](CCC(N)=O)C(=O)N[C@@H](CCCNC(=N)N)C(=O)N[C@H](C(=O)N[C@@H](CCCCN)C(=O)N[C@@H](CC(=O)O)C(=O)N[C@@H](Cc1ccccc1)C(=O)N[C@@H](CC(C)C)C(=O)N[C@@H](CCCNC(=N)N)C(=O)N[C@@H](CC(N)=O)C(=O)N[C@@H](CC(C)C)C(=O)N[C@H](C(=O)N1CCC[C@H]1C(=O)N[C@@H](CCCNC(=N)N)C(=O)N[C@H](C(=O)N[C@@H](CCC(=O)O)C(=O)N[C@@H](CO)C(=O)O)[C@@H](C)O)C(C)C)[C@@H](C)CC)C(C)C)[C@@H](C)CC [LL37]
[1]; E. coli, cfu counting, 5% human serum, LC99 = lowest AMP concentration that kills 99% of the original inoculum, 37 °C
  LC99 in 5% human serum: > 512 mg/L
[1]; E. coli, cfu counting, PBS pH 7.4, LC99 = lowest AMP concentration that kills 99% of the original inoculum, 37 °C
  LC99 in PBS: 16 mg/L

## CC(=O)CC(c1ccccc1)c1c(O)c2ccccc2oc1=O (centres unmarked) [warfarin]
Human albumin; human albumin drug binding site I (warfarin) and site II (ibuprofen)
  fraction bound to human albumin: more than 90%

## Pleurocidin: antimicrobial peptide from Pleuronectes amertcanus (GWGSFFKKAAHVGKHVGKAALTHYL)
HDL
  band shift by purified S50, E5, Apo-AI, PC, SM, CO and HDL: resistant
Human serum
  band shift of AMP in human serum: not shifted
[1]
  repression of antimicrobial activity by human serum: not at all observed
[1]; E. coli, LC99 in 5% human serum versus PBS
  fold increase of LC99 in 5% human serum over PBS: one
[1]; E. coli, NRC12 16 mg/L, Pleurocidin 8 mg/L
  bactericidal activity in presence of purified S50, E5, Apo-AI, PC, SM, CO and HDL: resistant

## Polymyxin B
Human serum
  band shift of AMP in human serum: not shifted
[1]
  repression of antimicrobial activity by human serum: not at all observed

## daptomycin
Human albumin; human serum
  fraction bound and inhibited by albumin: 90–94%

Source: publication PMC8850444, “The lipid components of high-density lipoproteins (HDL) are essential for the binding and transportation of antimicrobial peptides in human serum” (Scientific Reports, 2022)
